Like-named read-outs stand apart in the source and are kept apart here. Starred links: 1 amine or outer side, 2 acyl side, 3 side chain; linkers in the order of their positions; H or OH if unused. Non-standard residues stand in square brackets, D forms with d. Residues, ends and D or L forms follow the SMILES beside them. *: point of attachment. γ4hIle = CC[C@H](C)[C@@H](CCC(=O)[*:2])N[*:1]; Benzoyl(3-CN,4-F) = N#Cc1cc(C(=O)*)ccc1F; Ava = NCCCCC(=O)O
Experiments:
[1] = test system: human prostate cancer PC-3; test: Biodistribution of F-18 bombesin analogs in nude mice bearing human prostate cancer PC-3; settings: for Blocking: protocol as above (100 μg unlabeled gastrin-releasing peptide co-injected)
Method: (§1) Nude mice bearing human prostate cancer PC-3 were injected with 100 μl radioactive peptide dissolved in PBS containing 135 kBq per animal. For blocking 100 μg unlabeled gastrin-releasing peptide was co-injected. One hour post injection the animals were sacrificed and organs dissected for counting in a gamma-counter. Values are expressed as percent of the injected dose per gram organ weight.

[2] = test system: human prostate cancer PC-3; settings: mouse, in vivo
Method: as §1

tumor = settings: FIG. 5; versus tumor-tissue ratio of 18F-choline (FCH) and 18F-FB-Lys-BN
[3] = Biodistribution of F-18 bombesin analogs in nude mice bearing human prostate cancer PC-3; settings: nude, mouse, 135 kBq per animal, total radioactivity
Method: as §1

Row | Compound | Blocking ([1]; Table 1) | Panc. % ID/g [2] [% ID/g] | T/B [2] | T/M [2] | tumor-tissue ratio relative to 18F-choline (FCH) and 18F-FB-Lys-BN (tumor) [time higher] | T/B ([1]; Table 1, tumor/blood ratio) | T/M ([1]; Table 1, tumor/muscle ratio) | specificity of targeting (blocking) ([1]; blocking values low in tumor, unchanged for the other tissue) | accumulation in tumor ([1]; conclusion from biodistribution, 1 h) | tissue uptake at 1 h ([3]; blood) [%ID/g] | tissue uptake at 1 h ([3]; kidneys) [%ID/g] | tissue uptake at 1 h ([3]; liver) [%ID/g] | tissue uptake at 1 h ([3]; muscle) [%ID/g] | tissue uptake at 1 h ([3]; pancreas) [%ID/g] | tissue uptake at 1 h ([3]; tumor) [%ID/g] | tissue to tissue ratio at 1 h ([3]; tumor/blood) | tissue to tissue ratio at 1 h ([3]; tumor/muscle)
1 | 3-CF3,4-F-Benzoyl-Arg-Ava-Gln-Trp-Ala-Val-NMeGly-His-Sta-Leu-NH2 (RXQWAVGHXL; N-methyl; non-natural residues) | >70% | 1.42 | 4.56 | 25.3 |  |  |  |  |  |  |  |  |  |  |  |  | 
2 | 3-CN,4-F-Benzoyl-Arg-Ava-Gln-Trp-Ala-Val-Gly-His(3Me)-Sta-Leu-NH2 (RXQWAVGHXL; non-natural residues) | 30-90% | 4.16 | 5.65 | 13.84 |  |  |  |  |  |  |  |  |  |  |  |  | 
3 | 3-CN,4-F-Benzoyl-Arg-Ava-Gln-Trp-Ala-Val-NMeGly-His-Sta-Leu-NH2 (RXQWAVGHXL; N-methyl; non-natural residues) | 40-70% | 1.3 | 6.82 | 12.75 |  |  |  |  |  |  |  |  |  |  |  |  | 
4 | 4F,3CN-Bnz-Arg-Ava-Gln-Trp-Ala-Val-NMeGly-His(3Me)-Sta-Leu-NH2 (RXQWAVGHXL; N-methyl; non-natural residues) | 50-80% | 3.51 | 2.57 | 16.77 |  |  |  |  |  |  |  |  |  |  |  |  | 
5 | CC[C@H](C)[C@@H](CCC(=O)N[C@@H](CC(C)C)C(N)=O)NC(=O)[C@H](Cc1c[nH]cn1)NC(=O)CNC(=O)[C@@H](NC(=O)[C@H](C)NC(=O)[C@H](Cc1c[nH]c2ccccc12)NC(=O)[C@H](CCC(N)=O)NC(=O)CCCCNC(=O)c1ccc(F)c(C#N)c1)C(C)C [3-CN,4-F-Bz-Ava-Gln-Trp-Ala-Val-Gly-His-FA01010-Leu-NH2] ({Benzoyl(3-CN,4-F)-Ava}-QWAVGH[γ4hIle]L-NH2) | >70% |  |  |  | 2.5 | 21.03 | 59.99 | specific | accumulates in tumor | 0.05 ± 0.01 | 0.24 ± 0.02 | 0.35 ± 0.13 | 0.02 | 0.34 ± 0.03 | 1 ± 0.01 | 21 ± 11.9 | 60 ± 29.5
